Test results as given in the supplement of paper PMC10307832.

Columns and labels:
Test in all cases: relative viability (nuclei count vs DMSO), 5 days (fraction); higher = more cells survive
PAC-1 + Alpelisib = compound: C=CCc1cccc(/C=N/NC(=O)CN2CCN(Cc3ccccc3)CC2)c1O [PAC-1] + Cc1nc(NC(=O)N2CCC[C@H]2C(N)=O)sc1-c1ccnc(C(C)(C)C(F)(F)F)c1 [Alpelisib] (partner 2 µM)
Outline: (§1)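 Lung cancer cell lines in 1536-well plates were dosed by pin tool the day after seeding, either with one drug alone or with a fixed anchor-drug dose plus five library-drug doses (not always all listed) in √10 steps. After 5 days, cells were fixed and their nuclei stained in one step (final 0.05% Triton X-100, 1% formaldehyde, 1 ug/ml Hoechst), then counted on 4× images. Relative viability is the nuclei count in treated wells divided by that in vehicle wells. Values are medians of duplicate plates.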

PAC-1 + Foretinib = compound: C=CCc1cccc(/C=N/NC(=O)CN2CCN(Cc3ccccc3)CC2)c1O [PAC-1] + COc1cc2c(Oc3ccc(NC(=O)C4(C(=O)Nc5ccc(F)cc5)CC4)cc3F)ccnc2cc1OCCCN1CCOCC1 [Foretinib] (partner 0.25 µM)
Outline: as §1

PAC-1 + OSI-027 = compound: C=CCc1cccc(/C=N/NC(=O)CN2CCN(Cc3ccccc3)CC2)c1O [PAC-1] + COc1cccc2cc(-c3nc([C@H]4CC[C@H](C(=O)O)CC4)n4ncnc(N)c34)[nH]c12 [OSI-027] (partner 0.5 µM)
Outline: as §1

PAC-1 + Tozasertib = compound: C=CCc1cccc(/C=N/NC(=O)CN2CCN(Cc3ccccc3)CC2)c1O [PAC-1] + Cc1cc(Nc2cc(N3CCN(C)CC3)nc(Sc3ccc(NC(=O)C4CC4)cc3)n2)n[nH]1 [Tozasertib] (partner 0.1 µM)
Outline: as §1

PAC-1 + Crizotinib = compound: C=CCc1cccc(/C=N/NC(=O)CN2CCN(Cc3ccccc3)CC2)c1O [PAC-1] + C[C@@H](Oc1cc(-c2cnn(C3CCNCC3)c2)cnc1N)c1c(Cl)ccc(F)c1Cl [Crizotinib] (partner 1 µM)
Outline: as §1

Row | Cell Line | relative viability (PAC-1 + Alpelisib; first compound 0.02 µM) | relative viability (PAC-1 + Alpelisib; first compound 0.06325 µM) | relative viability (PAC-1 + Alpelisib; first compound 0.2 µM) | relative viability (PAC-1 + Alpelisib; first compound 2 µM) | relative viability (PAC-1 + Foretinib; first compound 0.02 µM) | relative viability (PAC-1 + Foretinib; first compound 0.06325 µM) | relative viability (PAC-1 + Foretinib; first compound 0.2 µM) | relative viability (PAC-1 + Foretinib; first compound 2 µM) | relative viability (PAC-1 + OSI-027; first compound 0.02 µM) | relative viability (PAC-1 + OSI-027; first compound 0.06325 µM) | relative viability (PAC-1 + OSI-027; first compound 0.2 µM) | relative viability (PAC-1 + OSI-027; first compound 2 µM) | relative viability (PAC-1 + Tozasertib; first compound 0.02 µM) | relative viability (PAC-1 + Tozasertib; first compound 0.06325 µM) | relative viability (PAC-1 + Tozasertib; first compound 0.2 µM) | relative viability (PAC-1 + Tozasertib; first compound 2 µM) | relative viability (PAC-1 + Crizotinib; first compound 0.02 µM) | relative viability (PAC-1 + Crizotinib; first compound 0.06325 µM) | relative viability (PAC-1 + Crizotinib; first compound 0.2 µM) | relative viability (PAC-1 + Crizotinib; first compound 2 µM)
1 | LCLC-103H | 0.861 | 0.864 | 1.05 | 0.928 | 0.734 | 0.785 | 0.713 | 0.689 | 0.45 | 0.467 | 0.436 | 0.559 | 0.56 | 0.492 | 0.494 | 0.463 | 1.07 | 1.15 | 0.974 | 1.02
2 | RERF-LC-KJ | 0.768 | 0.8 | 1.33 | 0.783 | 0.961 | 0.854 | 0.845 | 0.904 | 0.5 | 0.548 | 0.59 | 0.463 | 0.467 | 0.483 | 0.45 | 0.511 | 0.814 | 0.868 | 0.811 | 0.923
3 | NCI-H1650 |  |  |  |  | 0.892 | 1.31 | 1.22 | 0.732 | 0.569 | 0.614 | 0.55 | 0.612 | 0.361 | 0.393 | 0.522 | 0.375 | 0.936 | 1.09 | 0.898 | 1.03
4 | NCI-H1355 | 0.861 | 0.809 | 0.753 | 0.822 | 0.921 | 0.983 | 0.936 | 1.04 | 0.403 | 0.436 | 0.404 | 0.438 | 0.536 | 0.568 | 0.569 | 0.564 | 1.08 | 1.08 | 1.17 | 1.03
5 | NCI-H2085 | 0.949 | 0.944 | 0.921 | 0.916 | 0.815 | 0.932 | 0.998 | 1.07 | 0.755 | 0.713 | 0.66 | 0.754 | 0.787 | 0.81 | 0.797 | 0.796 | 0.742 | 0.899 | 0.789 | 0.947
6 | NCI-H650 | 1.09 | 1.23 | 1.23 | 1.17 | 1.08 | 1.07 | 0.992 | 0.988 | 0.47 | 0.515 | 0.468 | 0.535 | 0.73 | 0.791 | 0.749 | 0.721 | 0.591 | 0.653 | 0.825 | 0.72
7 | NCI-H460 | 0.354 | 0.534 | 0.433 | 0.327 | 1.08 | 0.915 | 0.954 | 0.959 | 0.582 | 0.727 | 0.626 | 0.637 | 0.356 | 0.453 | 0.394 | 0.542 | 0.887 | 0.805 | 0.823 | 1.07
8 | NCI-H1666 | 0.917 | 0.971 | 1.06 | 0.993 | 0.975 | 0.979 | 0.995 | 0.95 | 0.848 | 0.866 | 0.777 | 0.849 | 0.553 | 0.605 | 0.615 | 0.544 | 0.981 | 0.897 | 1.05 | 1
9 | LK-2 | 1.08 | 1.22 | 1.2 | 0.971 | 1.11 | 1.16 | 0.858 | 1.12 | 0.186 | 0.195 | 0.208 | 0.206 | 0.174 | 0.186 | 0.199 | 0.175 | 0.231 | 0.233 | 0.234 | 0.289
10 | Calu-6 | 0.929 | 1.03 | 0.931 | 1.13 | 0.883 | 0.89 | 0.952 | 0.944 |  |  |  |  |  |  |  |  | 0.728 | 0.823 | 0.8 | 0.867
11 | NCI-H1703 | 0.364 | 0.414 | 0.356 | 0.344 | 0.359 | 0.434 | 0.337 | 0.309 |  |  |  |  |  |  |  |  | 0.588 | 0.897 | 0.851 | 0.622
12 | IA-LM | 0.955 | 0.613 | 0.619 | 0.832 | 1.17 | 1.19 | 1.11 | 1.17 |  |  |  |  |  |  |  |  | 0.862 | 0.865 | 0.75 | 0.751
13 | NCI-H1623 |  |  |  |  | 0.86 | 0.851 | 0.961 | 0.868 | 0.455 | 0.446 | 0.442 | 0.448 | 0.42 | 0.43 | 0.427 | 0.482 |  |  |  | 
14 | NCI-H1395 | 1.19 | 1.02 | 1.02 | 1.02 | 0.937 | 1.02 | 0.875 | 0.873 | 0.66 | 0.603 | 0.667 | 0.54 | 0.629 | 0.7 | 0.749 | 0.646 |  |  |  | 
15 | ChaGo-K-1 |  |  |  |  | 0.974 | 0.949 | 0.866 | 1.04 | 0.623 | 0.617 | 0.57 | 0.635 | 0.214 | 0.217 | 0.223 | 0.218 | 1.15 | 1.17 | 1.09 | 1.03
16 | NCI-H2342 |  |  |  |  | 1.15 | 1.04 | 1.03 | 1.05 | 0.653 | 0.574 | 0.65 | 0.682 | 0.521 | 0.564 | 0.525 | 0.61 |  |  |  | 
17 | NCI-H522 |  |  |  |  |  |  |  |  | 0.673 | 0.695 | 0.737 | 0.691 | 0.598 | 0.582 | 0.62 | 0.469 |  |  |  | 
18 | HCC-44 | 0.782 | 0.875 | 0.774 | 0.855 |  |  |  |  | 0.486 | 0.62 | 0.607 | 0.585 | 0.989 | 1.04 | 0.94 | 0.877 | 0.809 | 0.797 | 0.807 | 0.772
19 | NCI-H1792 | 0.717 | 0.77 | 0.722 | 0.677 |  |  |  |  | 0.731 | 0.715 | 0.684 | 0.733 |  |  |  |  | 0.988 | 1.04 | 1.03 | 0.909
20 | NCI-H1648 |  |  |  |  |  |  |  |  | 0.239 | 0.264 | 0.27 | 0.317 | 0.6 | 0.606 | 0.464 | 0.488 |  |  |  | 
